Calls of active or inactive are those of the source. Peptide text beside a SMILES is read from it. * marks the point of attachment. Boc = CC(C)(C)OC(=O)*
Legend:
[1] = target: T1, Cytochrome P450 1A2 (Homo sapiens, UniProt P05177);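 note: PubChem cytochrome P450 panel assay, CYP1A2 panel member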
T1 sequence (P05177 whole entry): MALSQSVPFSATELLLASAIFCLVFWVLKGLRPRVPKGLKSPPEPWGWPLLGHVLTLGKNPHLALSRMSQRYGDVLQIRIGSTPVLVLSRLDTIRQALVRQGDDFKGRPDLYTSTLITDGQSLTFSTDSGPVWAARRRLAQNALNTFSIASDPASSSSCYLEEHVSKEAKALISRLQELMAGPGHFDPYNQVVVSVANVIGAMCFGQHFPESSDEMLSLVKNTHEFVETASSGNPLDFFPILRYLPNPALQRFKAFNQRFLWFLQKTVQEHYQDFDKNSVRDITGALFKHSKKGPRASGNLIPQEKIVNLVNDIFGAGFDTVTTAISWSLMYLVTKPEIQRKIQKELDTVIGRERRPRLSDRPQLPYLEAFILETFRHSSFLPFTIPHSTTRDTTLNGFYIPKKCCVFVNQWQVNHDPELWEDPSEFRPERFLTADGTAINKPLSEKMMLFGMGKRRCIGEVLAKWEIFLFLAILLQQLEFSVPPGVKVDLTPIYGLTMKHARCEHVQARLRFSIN

[2] = target: Cytochrome P450 2C19 (Homo sapiens, UniProt P33261); test: Cytochrome panel assay with activity outcomes. Panel member name: p450-cyp2c19 Compounds with AC50 equal or less than 10 uM are considered active; format: functional
Cytochrome P450 2C19, sequence (P33261 whole entry): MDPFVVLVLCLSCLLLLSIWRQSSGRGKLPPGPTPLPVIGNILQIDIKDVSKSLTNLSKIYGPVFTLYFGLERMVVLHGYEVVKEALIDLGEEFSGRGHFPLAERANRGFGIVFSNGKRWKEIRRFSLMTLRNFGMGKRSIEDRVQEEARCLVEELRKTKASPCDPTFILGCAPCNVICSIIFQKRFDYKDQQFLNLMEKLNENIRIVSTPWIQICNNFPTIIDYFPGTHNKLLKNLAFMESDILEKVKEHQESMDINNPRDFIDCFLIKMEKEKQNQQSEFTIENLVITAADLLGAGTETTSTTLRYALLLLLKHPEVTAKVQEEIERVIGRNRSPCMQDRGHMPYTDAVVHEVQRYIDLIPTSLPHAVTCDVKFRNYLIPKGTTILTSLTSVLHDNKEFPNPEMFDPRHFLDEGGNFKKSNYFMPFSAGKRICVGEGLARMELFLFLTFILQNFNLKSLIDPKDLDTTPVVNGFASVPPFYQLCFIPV

[3] = system: Streptococcus; test: Group A Streptococcus viability loss, dose response, counter-screen for streptokinase expression inhibitor project, luminescence, BacTiterGlo (AID 1915); format: functional, organism-based;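 note: potency for reduction of bacterial viability or growth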
[4] = target: T2, Streptokinase A (Streptococcus pyogenes serotype M1, UniProt P10520); test: S. pyogenes streptokinase expression inhibitors, potency, dose response, plasminogen activation absorbance, OD405 (AID 1914); format: functional, Streptococcus pyogenes M1 GAS;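 note: secreted streptokinase activity via plasminogen activation per viability signal from cell pellet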
T2 sequence (P10520 whole entry): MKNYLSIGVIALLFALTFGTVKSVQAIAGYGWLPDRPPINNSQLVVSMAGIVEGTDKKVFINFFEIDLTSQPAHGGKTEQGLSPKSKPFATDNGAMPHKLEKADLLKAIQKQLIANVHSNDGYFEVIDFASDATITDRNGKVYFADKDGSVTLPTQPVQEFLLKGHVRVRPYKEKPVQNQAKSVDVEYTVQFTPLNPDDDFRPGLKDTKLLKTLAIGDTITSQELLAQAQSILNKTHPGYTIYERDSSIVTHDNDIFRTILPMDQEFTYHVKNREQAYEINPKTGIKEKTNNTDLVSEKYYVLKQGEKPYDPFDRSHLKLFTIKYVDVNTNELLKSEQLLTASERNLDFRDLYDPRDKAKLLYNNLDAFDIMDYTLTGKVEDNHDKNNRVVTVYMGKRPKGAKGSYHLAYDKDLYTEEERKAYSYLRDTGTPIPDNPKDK

[5] = system: Streptococcus sp. 'group A'; test: growth inhibition of control SK(-) GAS strain, dose response, counter-screen for streptokinase expression inhibitor project, luminescence, kanamycin, BacTiterGlo, confirmation (AID 1900); format: functional, organism-based
[6] = target: Cytochrome P450 2C9 (Homo sapiens, UniProt P11712)
Cytochrome P450 2C9, sequence (P11712 whole entry): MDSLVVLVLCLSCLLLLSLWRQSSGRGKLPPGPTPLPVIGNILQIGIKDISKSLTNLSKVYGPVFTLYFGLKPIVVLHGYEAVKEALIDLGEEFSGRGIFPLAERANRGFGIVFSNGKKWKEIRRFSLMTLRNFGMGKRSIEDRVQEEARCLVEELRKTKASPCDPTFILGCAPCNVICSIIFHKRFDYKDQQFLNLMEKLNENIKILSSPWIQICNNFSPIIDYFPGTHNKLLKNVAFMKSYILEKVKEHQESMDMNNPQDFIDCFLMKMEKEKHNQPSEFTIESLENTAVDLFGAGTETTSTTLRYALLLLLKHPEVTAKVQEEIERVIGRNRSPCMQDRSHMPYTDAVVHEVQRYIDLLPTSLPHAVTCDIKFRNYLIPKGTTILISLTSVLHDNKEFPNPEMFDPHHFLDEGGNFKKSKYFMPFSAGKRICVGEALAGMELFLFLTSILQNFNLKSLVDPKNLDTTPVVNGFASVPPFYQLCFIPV

[7] = target: Cytochrome P450 3A4 (Homo sapiens, UniProt P08684);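 note: CYP3A4 tested as one member of a cytochrome P450 panel screen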
Cytochrome P450 3A4, sequence (P08684 whole entry): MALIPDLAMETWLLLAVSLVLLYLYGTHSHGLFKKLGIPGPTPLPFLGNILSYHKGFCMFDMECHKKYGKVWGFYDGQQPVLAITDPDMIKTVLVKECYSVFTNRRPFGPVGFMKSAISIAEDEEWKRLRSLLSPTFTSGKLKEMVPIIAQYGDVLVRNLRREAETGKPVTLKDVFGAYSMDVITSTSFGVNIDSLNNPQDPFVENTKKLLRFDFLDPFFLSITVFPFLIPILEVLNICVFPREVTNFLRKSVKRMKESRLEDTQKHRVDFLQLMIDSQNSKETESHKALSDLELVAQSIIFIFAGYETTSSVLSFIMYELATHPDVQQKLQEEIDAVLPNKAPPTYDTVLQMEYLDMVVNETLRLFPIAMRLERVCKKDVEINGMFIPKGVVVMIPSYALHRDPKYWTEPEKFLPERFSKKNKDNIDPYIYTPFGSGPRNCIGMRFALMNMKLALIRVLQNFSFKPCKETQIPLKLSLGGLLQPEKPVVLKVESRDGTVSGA

[8] = cytotoxicity toward NIH3T3 fibroblasts, dose response, counter-screen, cell-based, ATP luminescence, mouse fibroblasts (AID 2010); format: functional;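 note: cells exposed to compound for about 90 hours before reading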
[9] = inhibitors of intracellular T. cruzi replication, confirmation, NIH3T3 host cells, beta-gal luminescence (AID 2044); format: functional, cell-based;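 note: intracellular parasites grown in NIH/3T3 mouse fibroblasts as host cells; luminescent beta-galactosidase reporter signal from transgenic T. cruzi replicating inside host cells; inhibitors lower the luminescence signal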
[10] = target: T3, Corticotropin-releasing factor receptor 2/Corticotropin-releasing factor-binding protein (Homo sapiens, UniProt P24387+Q13324); test: activators of CRF receptor 2 with binding protein – uHTS hits, confirmation (AID 602473); format: functional; details: read-out: EC50_Mean
T3 sequence (Q13324 whole entry): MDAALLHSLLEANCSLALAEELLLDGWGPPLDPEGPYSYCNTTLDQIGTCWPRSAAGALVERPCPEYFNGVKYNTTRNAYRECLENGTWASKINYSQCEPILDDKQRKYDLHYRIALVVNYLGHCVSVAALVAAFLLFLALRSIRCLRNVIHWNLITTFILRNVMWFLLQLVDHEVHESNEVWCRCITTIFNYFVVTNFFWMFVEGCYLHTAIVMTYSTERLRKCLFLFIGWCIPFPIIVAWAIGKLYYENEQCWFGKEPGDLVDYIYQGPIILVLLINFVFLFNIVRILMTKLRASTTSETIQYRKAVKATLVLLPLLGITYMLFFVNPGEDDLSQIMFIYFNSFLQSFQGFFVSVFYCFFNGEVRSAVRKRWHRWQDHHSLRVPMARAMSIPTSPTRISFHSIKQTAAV
T3 sequence (P24387 whole entry): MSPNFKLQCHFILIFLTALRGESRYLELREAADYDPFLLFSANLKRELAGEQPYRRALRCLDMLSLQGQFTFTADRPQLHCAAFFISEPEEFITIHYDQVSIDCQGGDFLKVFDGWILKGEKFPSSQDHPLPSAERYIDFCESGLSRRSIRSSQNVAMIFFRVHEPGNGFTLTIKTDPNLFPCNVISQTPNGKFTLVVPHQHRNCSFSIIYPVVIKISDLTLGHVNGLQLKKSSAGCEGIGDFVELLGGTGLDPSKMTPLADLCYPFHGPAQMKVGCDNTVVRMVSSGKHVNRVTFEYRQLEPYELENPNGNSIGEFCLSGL

[11] = target: T3, Corticotropin-releasing factor receptor 2/Corticotropin-releasing factor-binding protein; test: Dose Response confirmation of uHTS hits for small molecule antagonists of the CRF-binding protein and CRF-R2 receptor complex.; format: functional; details: read-out: IC50_Mean
[12] = Luminescence Cell-Based Dose Retest to Confirm Inhibitors of Cancer Stem Cells. [Related pubchem assays (depositor defined):AID2717, AID2721]; format: functional; details: Homo sapiens

Row | Compound | AC50 [1] | AC50 ([2]; read-out: AC50) | AC50 [6] | also measured
1 | N[C@H](C(=O)O)[C@@H]1[C@@H](C(=O)O)C1(F)F | 31.6 µM (inconclusive) |  |  | 
2 | C=CCNC(=O)CC(=O)N/N=C/c1cccc(Br)c1 |  | 0.2 µM (inconclusive) |  | 
3 | CCn1c(COc2ccc(C)cc2)nnc1SCc1ccc(C#N)cc1 | 28.2 µM (inconclusive) |  |  | EC50 [3]: > 150 µM (not active); EC50 [4]: > 150 µM (not active); EC50 [5]: > 150 µM (not active)
4 | N#CC1=C(N)OC2=C(C(=O)CCC2)C12CCC1(CC2)OCCO1 | 25.1 µM (inconclusive) |  |  | 
5 | CS(=O)(=O)Nc1ccc(Cc2noc(-c3ccc4[nH]cc(CCN)c4c3)n2)cc1 [L-694247] |  |  | 31.6 µM (inconclusive) | 
6 | CCN(CC)c1ccc(NC(=O)CN2CCN(c3ccccc3F)CC2)cc1 | 28.2 µM (inconclusive) |  |  | AC50 [7]: 15.8 µM (inconclusive)
7 | c1ccc(-c2csc(Nc3nc(N4CCOCC4)nc(N4CCOCC4)n3)n2)cc1 | 5.62 µM (inconclusive) | 5.62 µM (inconclusive) | 3.16 µM (inconclusive) | EC50 [8]: > 30 µM (not active); AC50 [7]: 10 µM (inconclusive); EC50 [9]: 0.104 µM (active)
8 | O=C(O)c1ccccc1C(=O)NCc1ccc(F)cc1 |  | 28.2 µM (inconclusive) |  | 
9 | Cn1c(SCC(=O)NC2CC2)nnc1-c1cccc(NC(=O)c2ccccc2F)c1 |  |  | 17.8 µM (inconclusive) | 
10 | O=C(O)CCNC(=O)OCC1c2ccccc2-c2ccccc21 |  |  |  | EC50 [10]: > 53 µM (inactive); IC50 [11]: > 47.1 µM (inactive)
11 | CC(C)(C)C1CCc2c(C(=O)N/N=C/c3cccs3)csc2C1 (stereo not drawn) |  |  | 7.94 µM (inconclusive) | 
12 | Nc1cc(N)nc(SCC(=O)NNC(=O)c2ccc(Cl)cc2)n1 | 15.8 µM (inconclusive) | 39.8 µM (inconclusive) | 28.2 µM (inconclusive) | AC50 [7]: 14.1 µM (inconclusive)
13 | NC(=O)Nc1n[nH]c(-c2ccccc2)n1 | 3.16 µM (inconclusive) |  |  | 
14 | Oc1cc(O)c2c(c1)O[C@H](c1ccc(O)c(O)c1)[C@@H](O)[C@@H]2c1c(O)cc(O)c2c1O[C@@H](c1ccc(O)c(O)c1)[C@H](O)C2 | 2.51 µM (inconclusive) |  |  | 
15 | CC(C)C(NC(=O)OC(C)(C)C)C(=O)N1CCCC1C(=O)NC(Cc1ccccc1)C(N)=O (stereo not drawn) (Boc-Val-Pro-Phe-NH2; configuration not given here) | 2 µM (inconclusive) | 1.12 µM (inconclusive) | 31.6 µM (inconclusive) | AC50 [7]: 15.8 µM (inconclusive)
16 | CCN1CN=C(S)N(c2cc(C)ccc2C)C1 |  | 39.8 µM (inconclusive) |  | AC50 [7]: 20 µM (inconclusive)
17 | c1cncc(-c2cncnc2NC2CCNCC2)c1 | 12.6 µM (inconclusive) |  |  | 
18 | CC(=O)Nc1cccc(C(=O)OCc2ccc(C(=O)Oc3ccc(Cl)cc3)cc2)c1 |  |  | 1.12 µM (inconclusive) | 
19 | COC(=O)c1[nH]c(C)c(C(=O)C2=C(O)C(=O)N(CCN(C)C)C2c2cccs2)c1C (stereo not drawn) |  | 14.1 µM (inconclusive) |  | 
20 | CCOc1ccc(OCCOCCN2CCc3ccccc3C2)cc1 | 20 µM (inconclusive) |  | 11.2 µM (inconclusive) | EC50 [8]: 21 µM (active); AC50 [7]: 25.1 µM (inconclusive); EC50 [9]: 0.124 µM (active)
21 | O=C(O)C1CCCN1C(=O)OCc1ccccc1 (stereo not drawn) |  | 15.8 µM (inconclusive) |  | 
22 | Cc1cc(S(=O)(=O)c2cc3ccc(O)c(C)c3oc2=O)ccc1F |  |  |  | EC50 [10]: 5.8 µM (active)

Row | Compound | AC50 [1] | AC50 ([2]; read-out: AC50) | AC50 [6] | also measured
23 | O=C(Nc1cccnc1)c1ccc2snnc2c1 |  | 17.8 µM (inconclusive) | 25.1 µM (inconclusive) | 
24 | O=C1C[C@H](c2ccccc2)[C@@H](c2ccc(Br)cc2)O1 |  |  | 3.16 µM (inconclusive) | 
25 | CCc1cc(C(=O)OC)c(NC(=O)CCCC(=O)O)s1 | 25.1 µM (inconclusive) |  | 28.2 µM (inconclusive) | 
26 | O=c1c(-c2ccc(F)c(F)c2)nc2cncnc2n1-c1ccccc1 |  |  | 15.8 µM (inconclusive) | AC50 [7]: 20 µM (inconclusive)
27 | CC(C)NC[C@@H](O)c1ccc(O)c2ncccc12 |  |  |  | AC50 [2]: inconclusive
28 | CN(Cc1cc2ccccc2[nH]c1=O)S(C)(=O)=O | 28.2 µM (inconclusive) |  |  | 
29 | O=S(=O)(N=C(Nc1ccccn1)c1ccccc1)c1ccccc1 | 14.1 µM (inconclusive) | 15.8 µM (inconclusive) |  | AC50 [7]: 28.2 µM (inconclusive)
30 | CS(=O)(=O)Nc1cccc(-c2ccc3ncnc(NC4CC4)c3c2)c1 |  |  |  | AC50 [2]: inconclusive
31 | COC(=O)c1ccccc1OCC(=O)N1CCN(c2ccc(OC)cc2)CC1 |  |  | 17.8 µM (inconclusive) | 
32 | COCCn1c(=O)c(-c2ccc(F)cc2)nc2cnc(Oc3ccccc3)nc21 |  |  | 10 µM (inconclusive) | AC50 [7]: 15.8 µM (inconclusive)
33 | CCOC(=O)c1c(C)n(C)c2ccc(OC(=O)c3ccco3)cc12 |  |  | 1.12 µM (inconclusive) | 
34 | COc1ccc2oc(-c3ccc(C)c(NC(=O)c4ccc(N5CCOCC5)c([N+](=O)[O-])c4)c3)nc2c1 |  | 5.62 µM (inconclusive) | 3.16 µM (inconclusive) | 
35 | CC(C)(C)C(=O)Nc1cccc(-c2nc3ccccc3c(=O)o2)c1 |  | 35.5 µM (inconclusive) |  | AC50 [7]: 25.1 µM (inconclusive)
36 | C[C@H]1C2=C3C(CC[C@H]4C(OCc5ccc(F)cc5C(F)(F)F)OC[C@](C)([C@@H]34)N(C(=O)OC(C)(C)C)C2)C(CO)C1CO (stereo partly drawn) |  | 39.8 µM (inconclusive) | 39.8 µM (inconclusive) | 
37 | Clc1ccc(CSc2ncnc3c2ncn3[C@@H]2CCCCO2)cc1 | 1.58 µM (inconclusive) |  |  | 
38 | O=C1c2ccccc2-c2ccc(NC(=O)[C@H]3CCCC[C@@H]3C(=O)O)cc21 | 1 µM (inconclusive) |  |  | 
39 | O=c1cnc2cncnc2n1Cc1ccc(F)cc1 |  | 39.8 µM (inconclusive) |  | AC50 [7]: 20 µM (inconclusive)
40 | O=C(CN1c2ccccc2Sc2ccccc21)NNC(=O)Nc1ccc(Cl)c(Cl)c1 |  |  |  | EC50 [3]: 5.49 µM (active); EC50 [4]: > 150 µM (not active); AC50 [12]: 3.05 µM (active); EC50 [5]: 2.45 µM (active)
41 | O=C(/C=C/c1ccccc1)NC(NC(=S)Nc1cccc(Cl)c1)C(Cl)(Cl)Cl (stereo not drawn) |  |  |  | EC50 [8]: > 60 µM (inconclusive); EC50 [9]: 1.68 µM (active); EC50 [3]: 6.3 µM (active); EC50 [4]: > 150 µM (not active); EC50 [5]: 3.62 µM (active)
42 | CCC(C(=O)Nc1ccc(C(C)C)cc1)c1ccccc1 (stereo not drawn) |  |  |  | EC50 [10]: 6.87 µM (active)
43 | O=C(COc1ccc([N+](=O)[O-])cc1)NCc1ccccc1 |  | 7.94 µM (inconclusive) | 17.8 µM (inconclusive) | 
44 | O=S1(=O)[C@@H](c2ccccc2)[C@H](N2CCCCC2)[C@H]1[C@H]1C[C@H]2c3ccccc3[C@@H]1c1ccccc12 |  |  | 7.94 µM (inconclusive) | 

Reference: ChEMBL document CHEMBL1201862, “PubChem BioAssay data set” (2004)
